Source: the NIST ThermoML archive (doi:10.1016/j.jct.2006.05.006)
Numbers after ± are expanded uncertainties.

How the values were obtained:
[1] = refractive index (Na D-line) (dimensionless); conditions: 293.1 K; 101.33 kPa; Liquid; Standard Abbe refractometry
[2] = 101 kPa, Liquid
[3] = xn = mol fraction of the nth substance listed; conditions: 101 kPa, Liquid

Structure (SMILES)	refractive index [1]	mass density ([2]; 293.15 K) [kg/m3]	mass density ([2]; 303.15 K) [kg/m3]	mass density ([2]; 313.15 K) [kg/m3]	mass density ([2]; 323.15 K) [kg/m3]	mass density ([2]; 333.15 K) [kg/m3]	mass density ([2]; 343.15 K) [kg/m3]	mass density ([2]; 353.15 K) [kg/m3]	further results
CN1CCCC1=O [N-methylpyrrolidone]	1.4677 ± 0.0007	1032.66 ± 0.37	1023.42 ± 0.34	1014.27 ± 0.31	1005.62 ± 0.28	996.28 ± 0.28	987.39 ± 0.31	978.62 ± 0.65	
CN1CCCC1=O [N-methylpyrrolidone] + CCc1ccccc1									mass density ([3]; 293.15 K, x2 = 0): 1032.66 ± 0.37 kg/m3; mass density ([3]; 303.15 K, x2 = 0): 1023.42 ± 0.34 kg/m3; mass density ([3]; 313.15 K, x2 = 0): 1014.27 ± 0.31 kg/m3; mass density ([3]; 323.15 K, x2 = 0): 1005.62 ± 0.28 kg/m3; mass density ([3]; 333.15 K, x2 = 0): 996.28 ± 0.28 kg/m3; mass density ([3]; 343.15 K, x2 = 0): 987.39 ± 0.31 kg/m3; mass density ([3]; 353.15 K, x2 = 0): 978.62 ± 0.33 kg/m3
c1ccccc1 [benzene]	1.5009 ± 0.0007	878.96 ± 0.64	868.21 ± 0.67	857.4 ± 0.71	846.55 ± 0.74	835.66 ± 0.78	824.71 ± 0.81		
c1ccccc1 [benzene] + CN1CCCC1=O									mass density ([3]; 293.15 K, x1 = 1): 878.96 ± 0.64 kg/m3; mass density ([3]; 303.15 K, x1 = 1): 868.21 ± 0.67 kg/m3; mass density ([3]; 313.15 K, x1 = 1): 857.4 ± 0.71 kg/m3; mass density ([3]; 323.15 K, x1 = 1): 846.55 ± 0.74 kg/m3; mass density ([3]; 333.15 K, x1 = 1): 835.66 ± 0.78 kg/m3; mass density ([3]; 343.15 K, x1 = 1): 824.71 ± 0.81 kg/m3
CCc1ccccc1 [ethylbenzene]	1.4962 ± 0.0008	867.28 ± 0.81	858.36 ± 0.84	849.38 ± 0.86	840.35 ± 0.89	831.25 ± 0.91	822.11 ± 0.94	812.9 ± 0.97	
Cc1ccccc1 [toluene]	1.4965 ± 0.0008	866.8 ± 1.9	857.53 ± 2	848.23 ± 2	838.91 ± 2.1	829.55 ± 2.1	820.17 ± 2.2	810.77 ± 2.2	
Cc1ccccc1 [toluene] + CN1CCCC1=O									mass density ([3]; 293.15 K, x1 = 1): 866.8 ± 1.9 kg/m3; mass density ([3]; 303.15 K, x1 = 1): 857.53 ± 2 kg/m3; mass density ([3]; 313.15 K, x1 = 1): 848.23 ± 2 kg/m3; mass density ([3]; 323.15 K, x1 = 1): 838.91 ± 2.1 kg/m3; mass density ([3]; 333.15 K, x1 = 1): 829.55 ± 2.1 kg/m3; mass density ([3]; 343.15 K, x1 = 1): 820.17 ± 2.2 kg/m3; mass density ([3]; 353.15 K, x1 = 1): 810.77 ± 2.2 kg/m3
